The results in this text go back to PubChem BioAssay AID1259407 (Chemical Carcinogenesis Research Information System (CCRIS), 2018).

Entries after “also recorded” stand apart in the source; their conditions may differ. Calls of active or inactive are those of the source. The rule behind the calls is not given here.

This data set relates to CCRIS mutagenicity, Ames/micronucleus/aberration tests. Briefly: CCRIS mutagenicity studies.
The mark [1] stands for this setting: Test System: AMES SALMONELLA TYPHIMURIUM, Strain/Indicator: TA98, Metabolic Activation: HAMSTER, LIVER, S-9, AROCLOR 1254 (10%), Method: PREINCUBATION
Setting [2] is: Test System: AMES SALMONELLA TYPHIMURIUM, Strain/Indicator: TA98, Metabolic Activation: NONE, Method: PREINCUBATION
Where [3] appears, read: Test System: AMES SALMONELLA TYPHIMURIUM, Strain/Indicator: TA98, Metabolic Activation: RAT, LIVER, S-9, AROCLOR 1254 (10%), Method: PREINCUBATION
Setting [4] is: Test System: AMES SALMONELLA TYPHIMURIUM, Strain/Indicator: TA100, Metabolic Activation: HAMSTER, LIVER, S-9, AROCLOR 1254 (10%), Method: PREINCUBATION
[5] abbreviates: Test System: AMES SALMONELLA TYPHIMURIUM, Strain/Indicator: TA100, Metabolic Activation: NONE, Method: PREINCUBATION
[6] abbreviates: Test System: AMES SALMONELLA TYPHIMURIUM, Strain/Indicator: TA100, Metabolic Activation: RAT, LIVER, S-9, AROCLOR 1254 (10%), Method: PREINCUBATION
Where [7] appears, read: Test System: AMES SALMONELLA TYPHIMURIUM, Strain/Indicator: TA1535, Metabolic Activation: HAMSTER, LIVER, S-9, AROCLOR 1254 (10%), Method: PREINCUBATION
Where [8] appears, read: Test System: AMES SALMONELLA TYPHIMURIUM, Strain/Indicator: TA1535, Metabolic Activation: NONE, Method: PREINCUBATION
[9] abbreviates: Test System: AMES SALMONELLA TYPHIMURIUM, Strain/Indicator: TA1535, Metabolic Activation: RAT, LIVER, S-9, AROCLOR 1254 (10%), Method: PREINCUBATION
The mark [10] stands for this setting: Test System: AMES SALMONELLA TYPHIMURIUM, Strain/Indicator: TA1537, Metabolic Activation: HAMSTER, LIVER, S-9, AROCLOR 1254 (10%), Method: PREINCUBATION
Where [11] appears, read: Test System: AMES SALMONELLA TYPHIMURIUM, Strain/Indicator: TA1537, Metabolic Activation: NONE, Method: PREINCUBATION
[12] abbreviates: Test System: AMES SALMONELLA TYPHIMURIUM, Strain/Indicator: TA1537, Metabolic Activation: RAT, LIVER, S-9, AROCLOR 1254 (10%), Method: PREINCUBATION
Where [13] appears, read: Test System: AMES SALMONELLA TYPHIMURIUM, Strain/Indicator: TA1538, Metabolic Activation: RAT, LIVER, S-9, AROCLOR 1254, Method: STANDARD PLATE.
Where [14] appears, read: Test System: AMES SALMONELLA TYPHIMURIUM, Strain/Indicator: TA98, Metabolic Activation: NONE, Method: STANDARD PLATE.
The mark [15] stands for this setting: Test System: AMES SALMONELLA TYPHIMURIUM, Strain/Indicator: TA100, Metabolic Activation: NONE, Method: STANDARD PLATE.
The mark [16] stands for this setting: Test System: AMES SALMONELLA TYPHIMURIUM, Strain/Indicator: TA98, Metabolic Activation: RAT, LIVER, S-9, AROCLOR 1254, Method: STANDARD PLATE.
Where [17] appears, read: Test System: AMES SALMONELLA TYPHIMURIUM, Strain/Indicator: TA100, Metabolic Activation: RAT, LIVER, S-9, AROCLOR 1254, Method: STANDARD PLATE.

As to `COc1cc(-c2ccc(N/N=C3\C(=O)c4c(O)cc(S(=O)(=O)O)cc4C=C3S(=O)(=O)O)c(OC)c2)ccc1N/N=C1\C(=O)c2c(O)cc(S(=O)(=O)O)cc2C=C1S(=O)(=O)O`, the mutagenic call reads like this: under setting [1], “inactive; negative”; under setting [2], “inactive; negative”; under setting [3], “inactive; negative”; under setting [4], “inactive; negative”; under setting [5], “inactive; negative”; under setting [6], “inactive; negative”. The mutagenic call by setting is: under setting [7], “inactive; negative”; under setting [8], “inactive; negative”; under setting [9], “inactive; negative”; under setting [10], “inactive; negative”; under setting [11], “inactive; negative”; under setting [12], “inactive; negative”. For the same compound, the mutagenic call under setting [13] was “inactive; negative”.
Consider `c1cncc(C2=NCCC2)c1`, for which, where the note is “End Point: Lymphocytes, Strain/Indicator: Human (male and female) (HPRT)/6-Thioguanine, Metabolic Activation: None”, the mutagenic call was “active; positive (p=0.038)”.
For `COC(=O)c1cc2ccc3ccc[n+](C)c3c2[nH]1`, the mutagenic call runs as follows: under setting [14], “inactive; negative”; (Test System: E. COLI, Strain/Indicator: WP2 TM9, Metabolic Activation: NONE, Method: STANDARD PLATE) “inactive; negative”.
Consider `ClCc1cc2cc3ccccc3c3ccc4cccc1c4c23`, for which the mutagenic call runs as follows: under setting [14], “active; positive”; under setting [15], “active; positive”.
For `CCOC(=O)C1OC1c1ccccc1` (stereo not drawn), the mutagenic call runs as follows: under setting [1], “inactive; negative”; under setting [2], “inactive; negative”; under setting [14], “inactive; negative”; under setting [3], “inactive; negative”; under setting [16], “inactive; negative”; under setting [4], “inactive; negative”. The mutagenic call by setting is: under setting [5], “inactive; negative”; under setting [15], “inactive; negative”; under setting [6], “inactive; negative”; under setting [17], “active; positive”; under setting [7], “inactive; negative”; under setting [8], “inactive; negative”. Further, the mutagenic call by setting is: (Test System: AMES SALMONELLA TYPHIMURIUM, Strain/Indicator: TA1535, Metabolic Activation: NONE, Method: STANDARD PLATE) “inactive; negative”; under setting [9], “inactive; negative”; (Test System: AMES SALMONELLA TYPHIMURIUM, Strain/Indicator: TA1535, Metabolic Activation: RAT, LIVER, S-9, AROCLOR 1254, Method: STANDARD PLATE) “inactive; negative”; under setting [10], “inactive; negative”; under setting [11], “inactive; negative”; (Test System: AMES SALMONELLA TYPHIMURIUM, Strain/Indicator: TA1537, Metabolic Activation: NONE, Method: STANDARD PLATE) “inactive; negative”. Further, the mutagenic call reads like this: under setting [12], “inactive; negative”; (Test System: AMES SALMONELLA TYPHIMURIUM, Strain/Indicator: TA1537, Metabolic Activation: RAT, LIVER, S-9, AROCLOR 1254, Method: STANDARD PLATE) “inactive; negative”; (Test System: AMES SALMONELLA TYPHIMURIUM, Strain/Indicator: TA1538, Metabolic Activation: NONE, Method: STANDARD PLATE) “inactive; negative”; under setting [13], “inactive; negative”; (Test System: CHINESE HAMSTER OVARY, Strain/Indicator: CHO-K1-BH4/6-THIOGUANINE, Metabolic Activation: NONE) “active; positive”; (Test System: CHINESE HAMSTER OVARY, Strain/Indicator: CHO-K1-BH4/6-THIOGUANINE, Metabolic Activation: RAT, LIVER, S-9, AROCLOR 1254) “active; positive”.
In the case of `CCNc1cc(NC(C)=O)c(N=Nc2c(Cl)cc([N+](=O)[O-])cc2[N+](=O)[O-])cc1OC`, the mutagenic call (End Point: IN VITRO CHROMOSOMAL ABERRATIONS, Test System: CHL CELLS, Metabolic Activation: NONE) is “inactive; negative; precipitation of test chemical observed above 0.01 mg/ml; also recorded: active; positive (ploidy changes); precipitation of test chemical observed above 0.01 mg”.
As for `Cc1ccc(N=CN(C)C=Nc2ccc(C)cc2C)c(C)c1`, the mutagenic call reads like this: (Test System: AMES SALMONELLA TYPHIMURIUM, Strain/Indicator: TA97, Metabolic Activation: NONE, Method: STANDARD PLATE) “inactive; negative”; (Test System: AMES SALMONELLA TYPHIMURIUM, Strain/Indicator: TA97, Metabolic Activation: RAT, LIVER, S-9, AROCLOR 1254, Method: STANDARD PLATE) “inactive; negative”; under setting [14], “inactive; negative”; under setting [16], “inactive; negative”; under setting [15], “inactive; negative”; under setting [17], “inactive; negative”. Also, the mutagenic call was “inactive; negative” (Test System: AMES SALMONELLA TYPHIMURIUM, Strain/Indicator: TA102, Metabolic Activation: NONE, Method: STANDARD PLATE) and “inactive; negative” (Test System: AMES SALMONELLA TYPHIMURIUM, Strain/Indicator: TA102, Metabolic Activation: RAT, LIVER, S-9, AROCLOR 1254, Method: STANDARD PLATE).
As for `CC(=O)OCc1c2ccccc2cc2ccc3ccccc3c12`, the mutagenic call by setting is: under setting [14], “active; positive”; under setting [15], “active; positive”.
